Data on 24 compounds can be found in patent publication US10577363B2, “Substituted piperidine compounds” (EPIZYME, INC., priority 2014, dated 2020).

Test [1] deals with T1, SMYD3 (Homo sapiens (Human), UniProt Q9H7B4). The experiment in a line: SMYD3 cell assay (Trimethyl-MEKK2 In-Cell Western in 293T/17 cells). Type of test: cell-based. The conditions noted are these: read-out: SMYD3 Cell IC50. Summed up:
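In-Cell Western ratio of trimethyl-Lys260 MEKK2 to anti-flag signal; percent inhibition from DMSO and maximum-inhibition controls, IC50 by non-linear regression, triplicates.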

For test [2], the target named is T1, SMYD3. As to the kind of experiment: SMYD3 biochemical assay (SPA, 3H-SAM methylation of MEKK2 protein substrate). The conditions noted are these: read-out: SMYD3 Biochem IC50. Summed up:
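Full-length native human SMYD3 (E. coli-expressed, tags removed) preincubated with compounds 30 min at room temperature, then reaction started with 3H-SAM and GST-tagged MEKK2 protein in 25 mM Tris-Cl pH 8.0, 1 mM TCEP, 0.005% BSG, 0.005% Tween 20. Quenched with unlabelled SAM (100 uM final); 3H-MEKK2 counted by SPA.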

The mark [3] stands for this setting: Table 1A, IC50 values are an average of n = 1 to n = 50.

Some results are limits rather than exact numbers.

T1 sequence (Q9H7B4 whole entry): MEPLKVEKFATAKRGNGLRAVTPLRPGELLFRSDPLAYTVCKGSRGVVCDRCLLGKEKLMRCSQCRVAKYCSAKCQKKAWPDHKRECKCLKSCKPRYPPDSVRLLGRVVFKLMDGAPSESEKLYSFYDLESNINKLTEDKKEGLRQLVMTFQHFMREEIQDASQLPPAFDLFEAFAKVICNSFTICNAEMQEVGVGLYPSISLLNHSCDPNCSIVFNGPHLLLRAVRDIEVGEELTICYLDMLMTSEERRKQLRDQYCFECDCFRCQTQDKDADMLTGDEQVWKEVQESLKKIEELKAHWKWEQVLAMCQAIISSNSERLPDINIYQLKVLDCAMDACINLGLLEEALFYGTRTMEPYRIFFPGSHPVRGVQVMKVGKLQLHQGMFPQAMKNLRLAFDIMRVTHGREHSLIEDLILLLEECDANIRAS

Turning to `C[C@@H]1C[C@@H](NC(=O)c2cc(C3CC3)on2)CCN1S(=O)(=O)c1ccc(NCCN2CCOCC2)nc1` [compound 506, 5-cyclopropyl-N-((2R,4S)-2-methyl-1-((6-((2-morpholinoethyl)amino)pyridin-3-yl)sulfonyl)piperidin-4-yl)isoxazole-3-carboxamide], the 50% inhibitory concentration (IC50) (commonly the concentration that gives 50% inhibition) at SMYD3 [1] (setting [3]) is greater than 10000 nM; at SMYD3 [2] (setting [3]), 3970 nM.

Turning to `C[C@H]1C[C@H](NC(=O)c2cc(C3CC3)on2)CCN1S(=O)(=O)c1ccc(NCCN2CCOCC2)nc1` [compound 507, 5-cyclopropyl-N-((2S,4R)-2-methyl-1-((6-((2-morpholinoethyl)amino)pyridin-3-yl)sulfonyl)piperidin-4-yl)isoxazole-3-carboxamide], the results for the half-maximal inhibitory concentration (IC50) at SMYD3 [1] (setting [3]) and on SMYD3 [2] (setting [3]) were greater than 10000 nM and 5540 nM, respectively.

In the case of `O=C(N[C@H]1C[C@H]2CC[C@@H](C1)N2S(=O)(=O)CC1CCNCC1)c1cc(C2CC2)on1` [compound 526, 5-cyclopropyl-N-((1R,3r,5S)-8-((piperidin-4-ylmethyl)sulfonyl)-8-azabicyclo[3.2.1]octan-3-yl)isoxazole-3-carboxamide], the 50% inhibitory concentration (IC50) at SMYD3 [1] (setting [3]) stood at 15 nM; at SMYD3 [2] (setting [3]) it was 1 nM.

Take `O=C(N[C@H]1C[C@H]2CC[C@@H](C1)N2S(=O)(=O)N1CCNCC1)c1cc(C2CC2)on1` [compound 527, 5-cyclopropyl-N-((1R,3r,5S)-8-(piperazin-1-ylsulfonyl)-8-azabicyclo[3.2.1]octan-3-yl)isoxazole-3-carboxamide]: the IC50 at SMYD3 [1] (setting [3]) came to 32 nM; at SMYD3 [2] (setting [3]), 3 nM.

Regarding `C[C@H]1C[C@@H](NC(=O)c2cc(C3CC3)on2)CCN1S(=O)(=O)CC1CCN(CCc2ccccc2)CC1` [compound 530, 5-cyclopropyl-N-((2S,4S)-2-methyl-1-(((1-phenethylpiperidin-4-yl)methyl)sulfonyl)piperidin-4-yl)isoxazole-3-carboxamide], the IC50 was found to be 23.9 nM at SMYD3 [1] (Table 2A) and 0.9 nM on SMYD3 [2] (Table 2A).

As for `O=C(N[C@H]1C[C@H]2CC[C@@H](C1)N2S(=O)(=O)CC1CCN(CCO)CC1)c1cc(C2CC2)on1` [compound 531, 5-cyclopropyl-N-((1R,3r,5S)-8-(((1-(2-hydroxyethyl)piperidin-4-yl)methyl)sulfonyl)-8-azabicyclo[3.2.1]octan-3-yl)isoxazole-3-carboxamide], the half-inhibitory concentration (IC50) on SMYD3 [1] (Table 2A) turned out to be 33.1 nM; at SMYD3 [2] (Table 2A), 0.9 nM.

Consider `C[C@H]1C[C@@H](NC(=O)c2cc(C3CC3)on2)CCN1S(=O)(=O)CC1CCN(C)CC1` [compound 533, 5-cyclopropyl-N-((2S,4S)-2-methyl-1-(((1-methylpiperidin-4-yl)methyl)sulfonyl)piperidin-4-yl)isoxazole-3-carboxamide], for which the IC50 came out at 30.8 nM on SMYD3 [1] (Table 2A) and 1 nM on SMYD3 [2] (Table 2A).

With `O=C(N[C@H]1C[C@H]2CC[C@@H](C1)N2S(=O)(=O)CC1CCN(CCCO)CC1)c1cc(C2CC2)on1` [compound 534, 5-cyclopropyl-N-((1R,3r,5S)-8-(((1-(3-hydroxypropyl)piperidin-4-yl)methyl)sulfonyl)-8-azabicyclo[3.2.1]octan-3-yl)isoxazole-3-carboxamide], the IC50 is 27.7 nM at SMYD3 [1] (Table 2A) and 1.1 nM at SMYD3 [2] (Table 2A).

Take `CNC1CCN(S(=O)(=O)N2CC[C@H](NC(=O)c3cc(C4CC4)on3)C[C@@H]2C)CC1` [compound 535, 5-cyclopropyl-N-((2S,4S)-2-methyl-1-((4-(methylamino)piperidin-1-yl)sulfonyl)piperidin-4-yl)isoxazole-3-carboxamide]: the half-maximal inhibitory concentration (IC50) at SMYD3 [1] (Table 2A) was found to be 21.2 nM; at SMYD3 [2] (Table 2A), 1.2 nM.

Consider `O=C(N[C@H]1C[C@H]2CC[C@@H](C1)N2S(=O)(=O)CC1CCN(Cc2ccccc2)CC1)c1cc(C2CC2)on1` [compound 536, N-((1R,3r,5S)-8-(((1-benzylpiperidin-4-yl)methyl)sulfonyl)-8-azabicyclo[3.2.1]octan-3-yl)-5-cyclopropylisoxazole-3-carboxamide], for which the half-inhibitory concentration (IC50) on SMYD3 [1] (Table 2A) stood at 58 nM; at SMYD3 [2] (Table 2A), 1.2 nM.

As for `C[C@@H]1C[C@H](NC(=O)c2cc(C3CC3)on2)CCN1S(=O)(=O)CC1CCN(CCc2ccccc2)CC1` [compound 537, 5-cyclopropyl-N-((2R,4R)-2-methyl-1-(((1-phenethylpiperidin-4-yl)methyl)sulfonyl)piperidin-4-yl)isoxazole-3-carboxamide], the IC50 was 72.5 nM on SMYD3 [1] (Table 2A) and 1.3 nM on SMYD3 [2] (Table 2A).

For the compound `C[C@H]1C[C@@H](NC(=O)c2cc(C3CC3)on2)CCN1S(=O)(=O)CC1CCN(CCO)CC1` [compound 538, 5-cyclopropyl-N-((2S,4S)-1-(((1-(2-hydroxyethyl)piperidin-4-yl)methyl)sulfonyl)-2-methylpiperidin-4-yl)isoxazole-3-carboxamide], the 50% inhibitory concentration (IC50) came to 29.4 nM on SMYD3 [1] (Table 2A) and 1.3 nM at SMYD3 [2] (Table 2A).

In the case of `COCCCN1CCC(CS(=O)(=O)N2[C@@H]3CC[C@H]2C[C@@H](NC(=O)c2cc(C4CC4)on2)C3)CC1` [compound 542, 5-cyclopropyl-N-((1R,3r,5S)-8-(((1-(3-methoxypropyl)piperidin-4-yl)methyl)sulfonyl)-8-azabicyclo[3.2.1]octan-3-yl)isoxazole-3-carboxamide], the concentration for half-maximal inhibition (IC50) was 49.6 nM on SMYD3 [1] (Table 2A) and 1.6 nM at SMYD3 [2] (Table 2A).

`C[C@H]1C[C@@H](NC(=O)c2cc(C3CC3)on2)CCN1S(=O)(=O)CC1CCN(Cc2ccccc2)CC1` [compound 544, N-((2S,4S)-1-(((1-benzylpiperidin-4-yl)methyl)sulfonyl)-2-methylpiperidin-4-yl)-5-cyclopropylisoxazole-3-carboxamide]: the results for the IC50 on SMYD3 [1] (Table 2A) and at SMYD3 [2] (Table 2A) were 44.7 nM and 1.9 nM, respectively.

With `C[C@H]1C[C@@H](NC(=O)c2cc(C3CC3)on2)CCN1S(=O)(=O)N1CCC(N(C)C)CC1` [compound 545, 5-cyclopropyl-N-((2S,4S)-1-((4-(dimethylamino)piperidin-1-yl)sulfonyl)-2-methylpiperidin-4-yl)isoxazole-3-carboxamide], the IC50 on SMYD3 [1] (Table 2A) was 39.9 nM; at SMYD3 [2] (Table 2A) it was 2 nM.

`C[C@H]1C[C@@H](NC(=O)c2cc(C3CC3)on2)CCN1S(=O)(=O)N1CCC(NCc2ccccc2)CC1` [compound 546, N-((2S,4S)-1-((4-(benzylamino)piperidin-1-yl)sulfonyl)-2-methylpiperidin-4-yl)-5-cyclopropylisoxazole-3-carboxamide]: the 50% inhibitory concentration (IC50) at SMYD3 [1] (Table 2A) turned out to be 36 nM; on SMYD3 [2] (Table 2A), 2.1 nM.

For the compound `O=C(N[C@H]1C[C@H]2CC[C@@H](C1)N2S(=O)(=O)CC1CCCNC1)c1cc(C2CC2)on1` (stereo partly drawn) [compound 547, 5-cyclopropyl-N-((1R,3r,5S)-8-((piperidin-3-ylmethyl)sulfonyl)-8-azabicyclo[3.2.1]octan-3-yl)isoxazole-3-carboxamide], the IC50 on SMYD3 [1] (Table 2A) is 70.4 nM; on SMYD3 [2] (Table 2A), 2.3 nM.

In the case of `C[C@H]1C[C@@H](NC(=O)c2cc(C3CC3)on2)CCN1S(=O)(=O)CCCCN` [compound 548, N-((2S,4S)-1-((4-aminobutyl)sulfonyl)-2-methylpiperidin-4-yl)-5-cyclopropylisoxazole-3-carboxamide], the half-maximal inhibitory concentration (IC50) at SMYD3 [1] (Table 2A) is 94.1 nM; at SMYD3 [2] (Table 2A), 2.4 nM.

Take `O=C(N[C@H]1C[C@H]2CC[C@@H](C1)N2S(=O)(=O)CC1CCN(CCN2CCCCC2)CC1)c1cc(C2CC2)on1` [compound 549, 5-cyclopropyl-N-((1R,3r,5S)-8-(((1-(2-(piperidin-1-yl)ethyl)piperidin-4-yl)methyl)sulfonyl)-8-azabicyclo[3.2.1]octan-3-yl)isoxazole-3-carboxamide]: the figures for the IC50 on SMYD3 [1] (Table 2A) and at SMYD3 [2] (Table 2A) were 312 nM and 2.5 nM, respectively.

For the compound `CC(C)N1CCC(CS(=O)(=O)N2CC[C@H](NC(=O)c3cc(C4CC4)on3)C[C@@H]2C)CC1` [compound 550, 5-cyclopropyl-N-((2S,4S)-1-(((1-isopropylpiperidin-4-yl)methyl)sulfonyl)-2-methylpiperidin-4-yl)isoxazole-3-carboxamide], the IC50 was found to be 168 nM at SMYD3 [1] (Table 2A) and 2.6 nM on SMYD3 [2] (Table 2A).

Consider `O=C(N[C@H]1C[C@H]2CC[C@@H](C1)N2S(=O)(=O)CC1CCN(CCC(F)(F)F)CC1)c1cc(C2CC2)on1` [compound 551, 5-cyclopropyl-N-((1R,3r,5S)-8-(((1-(3,3,3-trifluoropropyl)piperidin-4-yl)methyl)sulfonyl)-8-azabicyclo[3.2.1]octan-3-yl)isoxazole-3-carboxamide], for which the concentration for half-maximal inhibition (IC50) at SMYD3 [1] (Table 2A) was 54.2 nM; at SMYD3 [2] (Table 2A) it was 2.9 nM.

With `NC1CC2(C1)CN(S(=O)(=O)N1[C@@H]3CC[C@H]1C[C@@H](NC(=O)c1cc(C4CC4)on1)C3)C2` [compound 552, N-((1R,3r,5S)-8-((6-amino-2-azaspiro[3.3]heptan-2-yl)sulfonyl)-8-azabicyclo[3.2.1]octan-3-yl)-5-cyclopropylisoxazole-3-carboxamide], the IC50 worked out at 49.2 nM at SMYD3 [1] (Table 2A) and 3.1 nM on SMYD3 [2] (Table 2A).

For `C[C@H]1C[C@@H](NC(=O)c2cc(C3CC3)on2)CCN1S(=O)(=O)CC1CCN(CCN2CCCCC2)CC1` [compound 553, 5-cyclopropyl-N-((2S,4S)-2-methyl-1-(((1-(2-(piperidin-1-yl)ethyl)piperidin-4-yl)methyl)sulfonyl)piperidin-4-yl)isoxazole-3-carboxamide], the IC50 is 106 nM on SMYD3 [1] (Table 2A) and 3.4 nM at SMYD3 [2] (Table 2A).

Turning to `COCCN1CCC(CS(=O)(=O)N2CC[C@H](NC(=O)c3cc(C4CC4)on3)C[C@@H]2C)CC1` [compound 554, 5-cyclopropyl-N-((2S,4S)-1-(((1-(2-methoxyethyl)piperidin-4-yl)methyl)sulfonyl)-2-methylpiperidin-4-yl)isoxazole-3-carboxamide], the values for the 50% inhibitory concentration (IC50) at SMYD3 [1] (Table 2A) and at SMYD3 [2] (Table 2A) were 70.4 nM and 3.5 nM, respectively.
